Measurements reported in patent US6368852B1, “Peptide capable of inducing immune response to human gastric cancer and agent for preventing or treating human gastric cancer, containing the peptide” (Ajinomoto Co., Inc., priority 1995, dated 2002).
Where no end group is shown, it is not given here.

How the values were obtained:
[1] = tested on: Tc-HST-2 cells with HST-2 cells expressing HLA-A31 antigen as target cells; assay: CTL assay using a TNF-releasing method (Wehi164/MTT); type: cell-based, human; conditions: peptide final concentration 10 μM, 1 μM or 0.1 μM; HST-2 target cells; target cells to CTL 1:100; 12 hours
Protocol: That is, in the TNF-releasing method, the HLA-A31-positive HST-2 or KG-1 cell is mixed with the peptide of the present invention, and the mixture is incubated at 37° C. for 3 hours. Then, Tc-HST-2 cells are added thereto, and the resulting mixture is further incubated for 12 hours. The activity of any TNF released in the supernatant is measured to detect the CTL inducibility.
The TNF activity can be measured by the method described in Immunogenetics, vol. 35, p. 145 (1992).
That is, TNF-sensitive Wehi164 cells are mixed with a test sample, and the mixture is incubated for 24 hours. Then, an MTT [3-(4,5-dimethylthiazol-2-yl)-2,5-diphenyl tetrazolium bromide] solution is added to the culture, and the resulting mixture is further incubated for 3 hours. After any formazan converted within mitochondria is dissolved in acid propanol, the amount thereof is measured in terms of an absorbance at OD570 to detect the TNF activity.
That is, 1×10^4 HST-2 cells expressing HLA-A31 antigen were suspended as target cells in 100 μl of the solution, and 5 μl of each of the above-mentioned four synthetic peptides were added thereto such that the final concentration reached 10 μM, 1 μM or 0.1 μM. The mixture was further incubated under the same conditions for 3 hours to bind the HLA-bound peptide to the HLA molecule. Subsequently, Tc-HST-2 cells (1×10^6 cells/ml) were added thereto in an amount of 100 μl, and the resulting mixture was further incubated for 12 hours under the same conditions.
After 12 hours of incubation, 30 μl of the supernatant formed was collected, and the TNF activity released in the supernatant was measured to detect the CTL inducibility. The TNF activity was measured by the following method.
That is, 7×10^4 Wehi164 cells which are TNF-sensitive cells were suspended in 120 μl of the solution, and 30 μl of the above-obtained supernatant were added thereto. The mixture was incubated for 24 hours. […] Then, the absorbance was measured at a wavelength of 570 nm to measure the TNF activity.

[2] = tested on: Tc-HST-2 cells with HST-2 or KG-1 cells expressing HLA-A31 antigen as target cells; assay: CTL inducibility by the 51Cr-releasing method (specific cytotoxicity of Tc-HST-2); type: cell-based, human; conditions: HLA-bound peptide from HST-2 separated by reversed-phase HPLC; target cells to CTL 1:100; 12 hours incubation
Protocol: That is, HLA-A31-positive HST-2 or KG-1 cells are radio-labeled with sodium chromate containing ^51Cr, and are then mixed with the HLA-bound peptide separated through reversed phase chromatography. The mixture is incubated at 37° C. for 3 hours, and Tc-HST-2 is then added thereto. The resulting mixture is further incubated for 12 hours. The CTL inducibility can be detected by measuring the radio-activity of ^51Cr released in the supernatant.
The CTL inducibility of the HPLC elution fractions against Tc-HST-2 cells was measured as follows. […]
Subsequently, Tc-HST-2 cells (2.5×10^5 cells/ml) were added thereto in an amount of 100 μl, and the mixture was incubated under the same conditions for 12 hours. After 12 hours of incubation, 100 μl of the supernatant formed were collected, and the radioactivity of ^51Cr released in this supernatant was measured using a γ-counter to measure the CTL activity.
The specific cytotoxicity was calculated using the following formula. […]
wherein the minimum release value indicates a measured value of a well filled with target cells alone and a value of ^51Cr naturally released from target cells, and the maximum release value indicates a release value when the cells are destroyed by adding a surfactant, 1% Triton x-100, to target cells.

Row | Substance | CTL inducibility of Tc-HST-2 (TNF activity released in the supernatant) [1] | CTL inducibility of Tc-HST-2 (specific cytotoxicity, 51Cr release) [2]
1 | Peptide 1-7: peptide containing 7 amino acids starting from the N-terminus of Synthetic Peptide 1 (SEQ ID NO: 4) (YSWMDIS) | no CTL inducibility | 
2 | YSWMDISC [Peptide 1-8] | no CTL inducibility | 
3 | YSWMDISCW [Peptide 1-9] | CTL inducibility of TC-HST-2 was identified | 
4 | YSWMDISCWI [Peptide 1, Tyr Ser Trp Met Asp Ile Ser cys Trp Ile] |  | exhibiting the CTL inducibility
